Our source for the IC50 values is US8916557B2, “Substituted 4-Aryl-N-phenyl-1,3,5-triazin-2-amines” (Bayer Intellectual Property GmbH, priority 2011, dated 2014).

Molecules are shown by their SMILES.

The target of one experiment is T1, CDK2/CycE (Homo sapiens, UniProt P24941).
T1 construct: GST; purchased ProQinase GmbH (Freiburg, Germany); host or cells: insect cells (Sf9)
The experiment in a line: CDK2/CycE kinase assay (TR-FRET). Particulars: Method 2, 10 μM ATP. Type of experiment: biochemical. The method in brief: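 GST-CDK2/GST-CycE (Sf9-expressed, ~130 ng/ml) pre-incubated with compound 15 min, then reacted 25 min at 22 °C with 10 μM ATP and 0.75 μM biotinylated peptide in Tris pH 8.0. Phospho-substrate detected by TR-FRET (anti-pRb pSer807/811, Eu/XL665), 665/620 nm ratio.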
(TR-FRET usually uses a lanthanide donor and a delayed reading to cut background.)

Experiment [1] relates to HeLa human cervical tumour cells. The experiment in a line: Proliferation assay (crystal violet), HeLa. Type of experiment: cell-based. Particulars: read-out: Inhibition of HeLa cell proliferation.
Experiment [2] concerns DU 145, hormone-independent human prostate carcinoma cells. The experiment in a line: Proliferation assay (crystal violet), DU 145. The format is cell-based. Particulars: DU145 cells, read-out: Inhibition of DU145 cell proliferation.
Experiment [3] has as its system NCI-H460, human non-small cell lung carcinoma cells. The experiment in a line: Proliferation assay (crystal violet), NCI-H460. The format is cell-based. Particulars: read-out: Inhibition of H460 cell proliferation (activity range). The method, then:
(§1) Cultivated tumour cells (NCI-H460, human non-small cell lung carcinoma cells, ATCC HTB-177; DU 145, hormone-independent human prostate carcinoma cells, ATCC HTB-81; HeLa-MaTu, human cervical carcinoma cells, EPO-GmbH, Berlin; HeLa-MaTu-ADR, multidrug-resistant human cervical carcinoma cells, EPO-GmbH, Berlin; HeLa human cervical tumour cells, ATCC CCL-2; Caco-2 human colorectal carcinoma, ATCC HTB-37; B16F10 mouse melanoma cells, ATCC CRL-6475) were plated at a density of 5000 cells/well (DU145, HeLa-MaTu-ADR), 3000 cells/well (NCI-H460, HeLa-MaTu, HeLa), 1500 cells/well (Caco-2), or 1000 cells/well (B16F10) in a 96-well multititer plate in 200 μL of their respective growth medium supplemented 10% fetal calf serum. After 24 hours, the cells of one plate (zero-point plate) were stained with crystal violet (see below), while the medium of the other plates was replaced by fresh culture medium (200 μl), to which the test substances were added in various concentrations (0 μM, as well as in the range of 0.001-10 μM; the final concentration of the solvent dimethyl sulfoxide was 0.5%). The cells were incubated for 4 days in the presence of test substances. Cell proliferation was determined by staining the cells with crystal violet: the cells were fixed by adding 20 μl/measuring point of an 11% glutaric aldehyde solution for 15 minutes at room temperature. After three washing cycles of the fixed cells with water, the plates were dried at room temperature. The cells were stained by adding 100 μl/measuring point of a 0.1% crystal violet solution (pH 3.0). After three washing cycles of the stained cells with water, the plates were dried at room temperature. The dye was dissolved by adding 100 μl/measuring point of a 10% acetic acid solution. The extinction was determined by photometry at a wavelength of 595 nm. The change of cell number, in percent, was calculated by normalization of the measured values to the extinction values of the zero-point plate (=0%) and the extinction of the untreated (0 μm) cells (=100%). The IC50 values were determined by means of a 4 parameter fit.

Experiment [4] deals with HeLa-MaTu-ADR, multidrug-resistant human cervical carcinoma cells. The experiment in a line: Proliferation assay (crystal violet), HeLa-MaTu-ADR. The format is cell-based. Particulars: read-out: Inhibition of HeLa/MaTu/ADR cell proliferation. The protocol:
as §1

For `CS(=O)(=O)Cc1cccc(Nc2ncnc(-c3ccc(F)cc3OCCF)n2)c1` [Example 61, 4-[4-Fluoro-2-(2-fluoroethoxy)phenyl]-N-{3-[(methylsulfonyl)methyl]phenyl}-1,3,5-triazin-2-amine], the IC50 at CDK2/CycE was 640 nM; in experiment [1] it was 590 nM; in experiment [2] it was 480 nM; in experiment [3], 610 nM; in experiment [4], 380 nM.

In the case of `CS(=O)(=O)Cc1cccc(Nc2ncnc(-c3cccc4c3OCCO4)n2)c1` [Example 18, 4-(2,3-Dihydro-1,4-benzodioxin-5-yl)-N-{3-[(methylsulfonyl)methyl]phenyl}-1,3,5-triazin-2-amine], the IC50 was found to be 840 nM on CDK2/CycE; 530 nM in experiment [1]; 530 nM in experiment [2]; 730 nM in experiment [3]; 400 nM in experiment [4].

Turning to `CS(=O)(=O)Cc1cccc(Nc2ncnc(-c3cccc4c3OCCC4)n2)c1` [Example 12, 4-(3,4-Dihydro-2H-chromen-8-yl)-N-{3-[(methylsulfonyl)methyl]phenyl}-1,3,5-triazin-2-amine], the IC50 against CDK2/CycE is 510 nM; in experiment [1], 340 nM; in experiment [2] it was 320 nM; in experiment [3] it was 410 nM; in experiment [4], 230 nM.

Take `COc1cc(F)ccc1-c1ncnc(Nc2cc(F)cc(CS(C)(=O)=O)c2)n1` [Example 10, 4-(4-Fluoro-2-methoxyphenyl)-N-{3-fluoro-5-[(methylsulfonyl)methyl]phenyl}-1,3,5-triazin-2-amine]: the IC50 amounted to 320 nM on CDK2/CycE; 110 nM in experiment [1]; 220 nM in experiment [2]; 220 nM in experiment [3]; 80 nM in experiment [4].

Regarding `CS(=O)(=O)Cc1cccc(Nc2ncnc(-c3ccc(F)cc3OCc3cccc(Cl)c3)n2)c1` [Example 85, 4-{2-[(3-Chlorobenzyl)oxy]-4-fluorophenyl}-N-{3-[(methylsulfonyl)methyl]phenyl}-1,3,5-triazin-2-amine], the IC50 against CDK2/CycE stood at 260 nM; in experiment [1], 320 nM; in experiment [2], 410 nM; in experiment [3], 360 nM; in experiment [4] it was 350 nM.

Turning to `COc1cc(F)ccc1-c1ncnc(Nc2cccc(CS(=O)(=O)C3CCCCC3)c2)n1` [Example 9, N-{3-[(Cyclohexylsulfonyl)methyl]phenyl}-4-(4-fluoro-2-methoxyphenyl)-1,3,5-triazin-2-amine], the IC50 at CDK2/CycE stood at 560 nM; in experiment [1] it was 1000 nM; in experiment [2], 840 nM; in experiment [3], 690 nM; in experiment [4], 420 nM.

`CS(=O)(=O)Cc1cccc(Nc2ncnc(-c3ccc(F)cc3OCc3ccncc3)n2)c1` [Example 89, 4-[4-Fluoro-2-(pyridin-4-ylmethoxy)phenyl]-N-{3-[(methylsulfonyl)methyl]phenyl}-1,3,5-triazin-2-amine]: the IC50 amounted to 400 nM against CDK2/CycE; 110 nM in experiment [1]; 180 nM in experiment [2]; 170 nM in experiment [3]; 340 nM in experiment [4].

For `CCCCOc1cc(F)ccc1-c1ncnc(Nc2cccc(CS(C)(=O)=O)c2)n1` [Example 44, 4-(2-Butoxy-4-fluorophenyl)-N-{3-[(methylsulfonyl)-methyl]phenyl}-1,3,5-triazin-2-amine], the IC50 at CDK2/CycE came to 910 nM; in experiment [1] it was 340 nM; in experiment [2], 520 nM; in experiment [3] it was 440 nM; in experiment [4] it was 320 nM.

Turning to `CCOc1cc(F)ccc1-c1ncnc(Nc2cccc(CS(C)(=O)=O)c2)n1` [Example 42, 4-(2-Ethoxy-4-fluorophenyl)-N-{3-[(methylsulfonyl)-methyl]phenyl}-1,3,5-triazin-2-amine], the IC50 at CDK2/CycE came out at 590 nM; in experiment [1], 330 nM; in experiment [2] it was 260 nM; in experiment [3] it was 290 nM; in experiment [4], 220 nM.

Take `CS(=O)(=O)Cc1cccc(Nc2ncnc(-c3ccc(Cl)cc3OC3CCCC3)n2)c1` [Example 29, 4-[4-Chloro-2-(cyclopentyloxy)phenyl]-N-{3-[(methylsulfonyl)methyl]phenyl}-1,3,5-triazin-2-amine]: the IC50 against CDK2/CycE was determined as 12000 nM; in experiment [1] it was 530 nM; in experiment [2] it was 530 nM; in experiment [3], 730 nM; in experiment [4] it was 400 nM.

In the case of `COc1cc(F)ccc1-c1ncnc(Nc2cccc(CS(=O)(=O)C3CC3)c2)n1` [Example 40, N-{3-[(Cyclopropylsulfonyl)methyl]phenyl}-4-(4-fluoro-2-methoxyphenyl)-1,3,5-triazin-2-amine], the IC50 at CDK2/CycE was 1300 nM; in experiment [1], 640 nM; in experiment [2] it was 600 nM; in experiment [3] it was 600 nM; in experiment [4], 510 nM.

As to `CS(=O)(=O)Cc1cccc(Nc2ncnc(-c3ccccc3OCc3cccc(Cl)c3)n2)c1` [Example 28, 4-{2-[(3-Chlorobenzyl)oxy]phenyl}-N-{3-[(methylsulfonyl)methyl]phenyl}-1,3,5-triazin-2-amine], the IC50 against CDK2/CycE amounted to 500 nM; in experiment [1] it was 360 nM; in experiment [2], 420 nM; in experiment [3], 370 nM; in experiment [4], 350 nM.

Regarding `CS(=O)(=O)Cc1cccc(Nc2ncnc(-c3ccc(F)cc3OCc3ccc(C#N)cc3)n2)c1` [Example 90, 4-({5-Fluoro-2-[4-({3-[(methylsulfonyl)methyl]phenyl}amino)-1,3,5-triazin-2-yl]phenoxy}methyl)-benzonitrile], the IC50 stood at 680 nM against CDK2/CycE; 110 nM in experiment [1]; 280 nM in experiment [2]; 60 nM in experiment [3]; 330 nM in experiment [4].

Turning to `CS(=O)(=O)Cc1cccc(Nc2ncnc(-c3ccc(F)cc3OCc3ccccc3)n2)c1` [Example 4, 4-[2-(Benzyloxy)-4-fluorophenyl]-N-{3-[(methylsulfonyl)methyl]phenyl}-1,3,5-triazin-2-amine], the IC50 was found to be 89 nM on CDK2/CycE, 100 nM in experiment [1], 150 nM in experiment [3] and 100 nM in experiment [4].

`CS(=O)(=O)Cc1cccc(Nc2ncnc(-c3ccc(F)cc3OCC3CC3)n2)c1` [Example 55, 4-[2-(Cyclopropylmethoxy)-4-fluorophenyl]-N-{3-[(methylsulfonyl)methyl]phenyl}-1,3,5-triazin-2-amine]: the IC50 against CDK2/CycE stood at 1400 nM; in experiment [1], 840 nM; in experiment [2], 570 nM; in experiment [3], 490 nM; in experiment [4], 320 nM.

In the case of `Cc1cccc(COc2cc(F)ccc2-c2ncnc(Nc3cccc(CS(C)(=O)=O)c3)n2)c1` [Example 83, 4-{4-Fluoro-2-[(3-methylbenzyl)oxy]phenyl}-N-{3-[(methylsulfonyl)-methyl]phenyl}-1,3,5-triazin-2-amine], the IC50 against CDK2/CycE amounted to 400 nM; in experiment [1], 510 nM; in experiment [2], 380 nM; in experiment [3], 380 nM; in experiment [4], 350 nM.

On to `COc1cc(F)ccc1-c1ncnc(Nc2cccc(CS(C)(=O)=O)c2)n1` [Example 3, 4-(4-Fluoro-2-methoxyphenyl)-N-{3-[(methylsulfonyl)methyl]phenyl}-1,3,5-triazin-2-amine], for which the IC50 came to 1600 nM on CDK2/CycE, 1200 nM in experiment [2], 1200 nM in experiment [3] and 920 nM in experiment [4].
